This passage reports EC50 results from US8748415B2 (priority 2011, dated 2014).

The first experiment concerns recombinant NL4-3 virus (Renilla luciferase in nef, Gag P373S). In words: HIV cell culture assay (luciferase activity in MT-2 cells infected with NLRluc recombinant virus). The format is cell-based. Conditions: NL43, MT-2 cells infected 4-5 days with NLRluc recombinant virus, class symbol. How it is done:
HIV cell culture assay—MT-2 cells and 293T cells were obtained from the NIH AIDS Research and Reference Reagent Program. MT-2 cells were propagated in RPMI 1640 media supplemented with 10% heat inactivated fetal bovine serum, […]. The 293T cells were propagated in DMEM media supplemented with 10% heat inactivated fetal bovine serum (FBS), 100 units/ml penicillin G and 100 μg/ml streptomycin. The proviral DNA clone of NL4-3 was obtained from the NIH AIDS Research and Reference Reagent Program. A recombinant NL4-3 virus, in which a section of the nef gene from NL4-3 was replaced with the Renilla luciferase gene, was used as a reference virus. In addition, residue Gag P373 was converted to P373S. Briefly, the recombinant virus was prepared by transfection of the altered proviral clone of NL4-3. Transfections were performed in 293T cells using LipofectAMINE PLUS from Invitrogen (Carlsbad, Calif.), according to manufacturer's instruction. The virus was titered in MT-2 cells using luciferase enzyme activity as a marker. Luciferase was quantitated using the Dual Luciferase kit from Promega (Madison, Wis.), with modifications to the manufacturer's protocol. The diluted Passive Lysis solution was pre-mixed with the re-suspended Luciferase Assay Reagent and the re-suspended Stop & Glo Substrate (2:1:1 ratio). Fifty (50) μL of the mixture was added to each aspirated well on assay plates and luciferase activity was measured immediately on a Wallac TriLux (Perkin-Elmer). Antiviral activities of inhibitors toward the recombinant virus were quantified by measuring luciferase activity in cells infected for 4-5 days with NLRluc recombinants in the presence serial dilutions of the inhibitor. Table 1 is the key for the data in Table 2.
Turning to `C=C(C)[C@@H]1CC[C@]2(CNCC(=O)O)CC[C@]3(C)[C@H](CC[C@@H]4[C@@]5(C)CC=C(c6ccc(C(=O)O)cc6)C(C)(C)[C@@H]5CC[C@]43C)[C@@H]12` [Example 31, 4-((1R,3aS,5aR,5bR,7aR,11aS,11bR,13aR,13bR)-3a-((carboxymethylamino)methyl)-5a,5b,8,8,11a-pentamethyl-1-(prop-1-en-2-yl)-2,3,3a,4,5,5a,5b,6,7,7a,8,11,11a,11b,12,13,13a,13b-octadecahydro-1H-cyclopenta[a]chrysen-9-yl)benzoic acid], the EC50 (in general, the midpoint of the concentration-response curve) is under 100 nM.
With `C=C(C)[C@@H]1CC[C@]2(CN(C)CCN3CCS(=O)(=O)CC3)CC[C@]3(C)[C@H](CC[C@@H]4[C@@]5(C)CC=C(c6ccc(C(=O)O)cc6)C(C)(C)[C@@H]5CC[C@]43C)[C@@H]12` [Example 33], the half-maximal effective concentration (EC50) is under 100 nM.
For `C=C(C)[C@@H]1CC[C@]2(CNCCN3CCCC3=O)CC[C@]3(C)[C@H](CC[C@@H]4[C@@]5(C)CC=C(c6ccc(C(=O)O)cc6)C(C)(C)[C@@H]5CC[C@]43C)[C@@H]12` [Example 34, 4-((1R,3aS,5aR,5bR,7aR,11aS,11bR,13aR,13bR)-5a,5b,8,8,11a-pentamethyl-3a-((2-(2-oxopyrrolidin-1-yl)ethylamino)methyl)-1-(prop-1-en-2-yl)-2,3,3a,4,5,5a,5b,6,7,7a,8,11,11a,11b,12,13,13a,13b-octadecahydro-1H-cyclopenta[a]chrysen-9-yl)benzoic acid], the EC50 was under 100 nM.
Same read-out and setting: the value for `C=C(C)[C@@H]1CC[C@]2(CNCc3ccc(S(N)(=O)=O)cc3)CC[C@]3(C)[C@H](CC[C@@H]4[C@@]5(C)CC=C(c6ccc(C(=O)O)cc6)C(C)(C)[C@@H]5CC[C@]43C)[C@@H]12` [Example 35] was under 100 nM; that for `C=C(C)[C@@H]1CC[C@]2(CNCCc3ccc(S(N)(=O)=O)cc3)CC[C@]3(C)[C@H](CC[C@@H]4[C@@]5(C)CC=C(c6ccc(C(=O)O)cc6)C(C)(C)[C@@H]5CC[C@]43C)[C@@H]12` [Example 36, 4-((1R,3aS,5aR,5bR,7aR,11aS,11bR,13aR,13bR)-5a,5b,8,8,11a-pentamethyl-1-(prop-1-en-2-yl)-3a-((4-sulfamylphenethylamino)methyl)-2,3,3a,4,5,5a,5b,6,7,7a,8,11,11a,11b,12,13,13a,13b-octadecahydro-1H-cyclopenta[a]chrysen-9-yl)benzoic acid] was under 100 nM; that for `CC(C)[C@@H]1CC[C@]2(CNCCCN3CCS(=O)(=O)CC3)CC[C@]3(C)[C@H](CC[C@@H]4[C@@]5(C)CC=C(c6ccc(C(=O)O)cc6)C(C)(C)[C@@H]5CC[C@]43C)[C@@H]12` [Example 37, 4-((1R,3aS,5aR,5bR,7aR,11aS,11bR,13aR,13bR)-5a,5b,8,8,11a-pentamethyl-1-(prop-1-en-2-yl)-3a-((3-(1-dioxo-thiomorpholino)propylamino)methyl)-2,3,3a,4,5,5a,5b,6,7,7a,8,11,11a,11b,12,13,13a,13b-octadecahydro-1H-cyclopenta[a]chrysen-9-yl)benzoic acid] was under 100 nM.
Same read-out and setting: the value for `C=C(C)[C@@H]1CC[C@]2(CNCCCC(=O)OC)CC[C@]3(C)[C@H](CC[C@@H]4[C@@]5(C)CC=C(c6ccc(C(=O)O)cc6)C(C)(C)[C@@H]5CC[C@]43C)[C@@H]12` [Example 38, 4-((1R,3aS,5aR,5bR,7aR,11aS,11bR,13aR,13bR)-3a-((4-methoxy-4-oxobutylamino)methyl)-5a,5b,8,8,11a-pentamethyl-1-(prop-1-en-2-yl)-2,3,3a,4,5,5a,5b,6,7,7a,8,11,11a,11b,12,13,13a,13b-octadecahydro-1H-cyclopenta[a]chrysen-9-yl)benzoic acid] was under 100 nM.
Same read-out and setting: the value for `C=C(C)[C@@H]1CC[C@]2(CNCC(=O)N(C)C)CC[C@]3(C)[C@H](CC[C@@H]4[C@@]5(C)CC=C(c6ccc(C(=O)O)cc6)C(C)(C)[C@@H]5CC[C@]43C)[C@@H]12` [Example 39, 4-((1R,3aS,5aR,5bR,7aR,11aS,11bR,13aR,13bR)-3a-((2-(dimethylamino)-2-oxoethylamino)methyl)-5a,5b,8,8,11a-pentamethyl-1-(prop-1-en-2-yl)-2,3,3a,4,5,5a,5b,6,7,7a,8,11,11a,11b,12,13,13a,13b-octadecahydro-1H-cyclopenta[a]chrysen-9-yl)benzoic acid] was under 100 nM.
Consider `C=C(C)[C@@H]1CC[C@]2(CNCCCN3CCCS3(=O)=O)CC[C@]3(C)[C@H](CC[C@@H]4[C@@]5(C)CC=C(c6ccc(C(=O)O)cc6)C(C)(C)[C@@H]5CC[C@]43C)[C@@H]12` [Example 40, 4-((1R,3aS,5aR,5bR,7aR,11aS,11bR,13aR,13bR)-3a-(((3-(1,1-dioxido-2-isothiazolidinyl)propyl)amino)methyl)-1-isopropenyl-5a,5b,8,8,11a-pentamethyl-2,3,3a,4,5,5a,5b,6,7,7a,8,11,11a,11b,12,13,13a,13b-octadecahydro-1H-cyclopenta[a]chrysen-9-yl)benzoic acid], for which the EC50 is under 100 nM.
The same measure, in the same setting: under `C=C(C)[C@@H]1CC[C@]2(CNCCS(C)(=O)=O)CC[C@]3(C)[C@H](CC[C@@H]4[C@@]5(C)CC=C(c6ccc(C(=O)O)cc6)C(C)(C)[C@@H]5CC[C@]43C)[C@@H]12` [Example 41, 4-((1R,3aS,5aR,5bR,7aR,11aS,11bR,13aR,13bR)-5a,5b,8,8,11a-pentamethyl-3a-((2-(methylsulfonyl)ethylamino)methyl)-1-(prop-1-en-2-yl)-2,3,3a,4,5,5a,5b,6,7,7a,8,11,11a,11b,12,13,13a,13b-octadecahydro-1H-cyclopenta[a]chrysen-9-yl)benzoic acid] stands under 100 nM; under `C=C(C)[C@@H]1CC[C@]2(CNCC(OCC)OCC)CC[C@]3(C)[C@H](CC[C@@H]4[C@@]5(C)CC=C(c6ccc(C(=O)O)cc6)C(C)(C)[C@@H]5CC[C@]43C)[C@@H]12` [Example 42, 4-((1R,3aS,5aR,5bR,7aR,11aS,11bR,13aR,13bR)-3a-((2,2-diethoxyethylamino)methyl)-5a,5b,8,8,11a-pentamethyl-1-(prop-1-en-2-yl)-2,3,3a,4,5,5a,5b,6,7,7a,8,11,11a,11b,12,13,13a,13b-octadecahydro-1H-cyclopenta[a]chrysen-9-yl)benzoic acid], under 100 nM; under `C=C(C)[C@@H]1CC[C@]2(CNCCS(=O)(=O)N3CCNCC3)CC[C@]3(C)[C@H](CC[C@@H]4[C@@]5(C)CC=C(c6ccc(C(=O)O)cc6)C(C)(C)[C@@H]5CC[C@]43C)[C@@H]12` [Example 43, 4-((1R,3aS,5aR,5bR,7aR,11aS,11bR,13aR,13bR)-5a,5b,8,8,11a-pentamethyl-3a-((2-(piperazin-1-ylsulfonyl)ethylamino)methyl)-1-(prop-1-en-2-yl)-2,3,3a,4,5,5a,5b,6,7,7a,8,11,11a,11b,12,13,13a,13b-octadecahydro-1H-cyclopenta[a]chrysen-9-yl)benzoic acid], under 100 nM.
Turning to `C=C(C)[C@@H]1CC[C@]2(CNCCS(N)(=O)=O)CC[C@]3(C)[C@H](CC[C@@H]4[C@@]5(C)CC=C(c6ccc(C(=O)O)cc6)C(C)(C)[C@@H]5CC[C@]43C)[C@@H]12` [Example 45], the EC50 was under 100 nM.
Still for that read-out and setting: the value for `C=C(C)[C@@H]1CC[C@]2(CNCCc3ccc(C(=O)OC)cc3)CC[C@]3(C)[C@H](CC[C@@H]4[C@@]5(C)CC=C(c6ccc(C(=O)O)cc6)C(C)(C)[C@@H]5CC[C@]43C)[C@@H]12` [Example 46, 4-((1R,3aS,5aR,5bR,7aR,11aS,11bR,13aR,13bR)-3a-((4-(methoxycarbonyl)phenethylamino)methyl)-5a,5b,8,8,11a-pentamethyl-1-(prop-1-en-2-yl)-2,3,3a,4,5,5a,5b,6,7,7a,8,11,11a,11b,12,13,13a,13b-octadecahydro-1H-cyclopenta[a]chrysen-9-yl)benzoic acid] was under 100 nM; that for `C=C(C)[C@@H]1CC[C@]2(CNCCc3ccc(C(=O)O)cc3)CC[C@]3(C)[C@H](CC[C@@H]4[C@@]5(C)CC=C(c6ccc(C(=O)O)cc6)C(C)(C)[C@@H]5CC[C@]43C)[C@@H]12` [Example 47, 4-((1R,3aS,5aR,5bR,7aR,11aS,11bR,13aR,13bR)-3a-((4-carboxyphenethylamino)methyl)-5a,5b,8,8,11a-pentamethyl-1-(prop-1-en-2-yl)-2,3,3a,4,5,5a,5b,6,7,7a,8,11,11a,11b,12,13,13a,13b-octadecahydro-1H-cyclopenta[a]chrysen-9-yl)benzoic acid] was under 100 nM.

The same experiment, now with this note: NL43, MT-2 cells infected 4-5 days with NLRluc recombinant virus, numeric value.
Consider `C=C(C)[C@@H]1CC[C@]2(CN(C)CCS(=O)(=O)N3CCN(C)CC3)CC[C@]3(C)[C@H](CC[C@@H]4[C@@]5(C)CC=C(c6ccc(C(=O)O)cc6)C(C)(C)[C@@H]5CC[C@]43C)[C@@H]12` [Example 44, 4-((1R,3aS,5aR,5bR,7aR,11aS,11bR,13aR,13bR)-5a,5b,8,8,11a-pentamethyl-3a-((methyl(2-(4-methylpiperazin-1-ylsulfonyl)ethyl)amino)methyl)-1-(prop-1-en-2-yl)-2,3,3a,4,5,5a,5b,6,7,7a,8,11,11a,11b,12,13,13a,13b-octadecahydro-1H-cyclopenta[a]chrysen-9-yl)benzoic acid], for which the EC50 turned out to be 20 nM.
